From patent publication US12564193B2, “Isoxazoline-substituted benzamide derivative, and preparation method therefor and use thereof” (SHANDONG UNITED PESTICIDE INDUSTRY CO., LTD., priority 2020, dated 2026)
Like-named read-outs stand apart in the source and are kept apart here.

How the values were obtained:
Format in all cases: in vivo
Mythimna separata = assay: Insecticidal activity, spray on pre-infested radish plants: Mythimna separata; settings: for Fatality rate on Mythimna separata (%): Table 3; for pest or weed control at 0.1 ppm / pest or weed control at 1 ppm / pest or weed control at 10 ppm: Mythimna separata, 144 h, read-out: fatality rate on Mythimna separata
Procedure: (§1) For determination of insecticidal activity, the test method was as follows: a test solution with a desired concentration was prepared by dissolving a test compound sample in a suitable solvent (the kind of solvent was such as acetone, methanol, DMSO, etc., and was selected according to its dissolving ability for the sample). The test cell was composed of a small open container with 12-15 day old radish plants inside. The plants were pre-infested by placing 30-40 pests located on one leaf cut from the cultivated plant on one leaf of the test plant (leaf cutting method). As the leaves dehydrated, the pests moved on the test plants. After the pre-infesting, the soil of the test cells was covered with a layer of sand.
(§2) The test method was as follows: the test was repeated for three times, and after spraying the formulated test compound, each test unit was allowed to dry for 1 hour, and then a black mesh cover was placed at the top. The test units were kept in a growth chamber at 25° C. and 70% relative humidity for 6 days. The mortality (fatality rate) of the insects was then visually assessed for each test unit, and the fatality rate was calculated as follows: […]

Tetranychus cinnabarinus = assay: Acaricidal activity, slide immersion of female adult mites: Tetranychus cinnabarinus; settings: read-out: fatality rate on Tetranychus cinnabarinus
Procedure: The test method was as follows: a test solution with a desired concentration was prepared by dissolving a test compound sample in a suitable solvent (the kind of solvent was such as acetone, methanol, DMSO, etc., and was selected according to its dissolving ability for the sample). A double-sided adhesive tape was cut into 2-3 cm long pieces, the pieces were attached to one end of a microscope slide, paper pieces on the adhesive tape were removed using tweezers, female adult mites which were consistent in size, bright in body color and lively in action were selected using a zero-size brush pen, the backs of the female adult mites were adhered to the double-sided adhesive tape (note: the adhesion should not cover mite feet, mite whiskers and mouthparts), with 4 rows of mites adhered to each piece and 10 heads of the mites adhered to each row.
One end of the glass slide with the mites was immersed into a drug liquid, with slightly shaking for 5 seconds, and then the slide was taken out. The excess drug liquid around the mite body and is surroundings is quickly sucked off using absorbent paper. The slide was placed in the biochemical incubator described above, and the results were checked by using binoculars after 24 hours. The mites were slightly touched by using a brush pen, the mites with immobility in feet were considered to be dead, and the fatality rate was calculated. The fatality rate was calculated as follows: […]

Chilo suppressalis = assay: Insecticidal activity, spray on pre-infested radish plants: Chilo suppressalis; settings: for Fatality rate on Chilo suppressalis (%): Table 3; for pest or weed control at 0.1 ppm / pest or weed control at 1 ppm / pest or weed control at 10 ppm: Chilo suppressalis, 144 h, read-out: fatality rate on Chilo suppressalis
Procedure: as §1, §2

Pieris rapae = assay: Insecticidal activity, spray on pre-infested radish plants: Pieris rapae; settings: 144 h, read-out: fatality rate on Pieris rapae
Procedure: as §1, §2

Spodoptera litura = assay: Insecticidal activity, spray on pre-infested radish plants: Spodoptera litura; settings: 144 h, read-out: fatality rate on Spodoptera litura
Procedure: as §1, §2

[1] = tested on: Frankliniella occidentalis; assay: Insecticidal activity, spray on pre-infested radish plants: Frankliniella occidentalis; settings: for Fatality rate on Frankliniella occidentalis (%): Table 3; for pest or weed control at 1 ppm / pest or weed control at 10 ppm / pest or weed control at 25 ppm: Frankliniella occidentalis, 144 h, read-out: fatality rate on Frankliniella occidentalis
Procedure: as §1
The test method was as follows: the test was repeated for three times, and after spraying the formulated test compound, each test unit was allowed to dry for 1 hour, and then a black mesh cover was placed at the top. The test units were kept in a growth chamber at 25° C. and 70% relative humidity for 6 days. The mortality (fatality rate) of the insects was then visually assessed for each test unit, and the fatality rate was calculated as follows:
[formula] (1) Test Results for the Control of Frankliniella occidentalis by Exemplary Example Compounds

Plutella xylostella = assay: Insecticidal activity, spray on pre-infested radish plants: Plutella xylostella; settings: for Fatality rate on Plutella xylostella (%): Table 3; for pest or weed control at 0.1 ppm / pest or weed control at 1 ppm / pest or weed control at 10 ppm: Plutella xylostella, 144 h, read-out: fatality rate on Plutella xylostella
Procedure: as §1, §2

Cnaphalocrocis medinalis = assay: Insecticidal activity, spray on pre-infested radish plants: Cnaphalocrocis medinalis; settings: 144 h, read-out: fatality rate on Cnaphalocrocis medinalis
Procedure: as §1, §2

For `Cc1cc(C2=NOC(c3cc(F)c(F)c(F)c3)(C(F)(F)F)C2)ccc1C(=O)NCc1ncc(C(F)(F)F)cc1Cl` (stereo not drawn) [Compound 10, N-((3-chloro-5-(trifluoromethyl)pyridin-2-yl)methyl)-2-methyl-4-(5-(trifluoromethyl)-5-(3,4,5-trifluorophenyl)-4,5-dihydroisoxazol-3-yl)benzamide], the “Fatality rate on Mythimna separata (%)” value (Mythimna separata; 0.1 ppm) was 85%, the “Fatality rate on Mythimna separata (%)” value (Mythimna separata; 1 ppm) was 100% and the “Fatality rate on Mythimna separata (%)” value (Mythimna separata; 10 ppm) was 100%. It also gave a pest or weed control at 0.1 ppm (Mythimna separata; dose 0.1 ppm, spray, 6 days) of over 80%, a pest or weed control at 1 ppm (Mythimna separata; dose 1 ppm, spray, 6 days) of over 80% and a pest or weed control at 10 ppm (Mythimna separata; dose 10 ppm, spray, 6 days) of over 80%. For the same molecule, the pest or weed control at 1 ppm (Tetranychus cinnabarinus; dose 1 ppm, immersion 5 seconds, checked after 24 hours) was over 80%, the pest or weed control at 10 ppm (Tetranychus cinnabarinus; dose 10 ppm, immersion 5 seconds, checked after 24 hours) was over 80% and the pest or weed control at 25 ppm (Tetranychus cinnabarinus; dose 25 ppm, immersion 5 seconds, checked after 24 hours) was over 80%. The “Fatality rate on Chilo suppressalis (%)” value (Chilo suppressalis; 0.1 ppm) was 85%, the “Fatality rate on Chilo suppressalis (%)” value (Chilo suppressalis; 1 ppm) was 100% and the “Fatality rate on Chilo suppressalis (%)” value (Chilo suppressalis; 10 ppm) was 100%. The pest or weed control at 0.1 ppm (Chilo suppressalis; dose 0.1 ppm, spray, 6 days) was over 80%, the pest or weed control at 1 ppm (Chilo suppressalis; dose 1 ppm, spray, 6 days) was over 80% and the pest or weed control at 10 ppm (Chilo suppressalis; dose 10 ppm, spray, 6 days) was over 80%. The pest or weed control at 0.1 ppm (Pieris rapae; dose 0.1 ppm, spray, 6 days) was over 80%, the pest or weed control at 1 ppm (Pieris rapae; dose 1 ppm, spray, 6 days) was over 80% and the pest or weed control at 10 ppm (Pieris rapae; dose 10 ppm, spray, 6 days) was over 80%. It also gave a pest or weed control at 0.1 ppm (Spodoptera litura; dose 0.1 ppm, spray, 6 days) of over 80%, a pest or weed control at 1 ppm (Spodoptera litura; dose 1 ppm, spray, 6 days) of over 80% and a pest or weed control at 10 ppm (Spodoptera litura; dose 10 ppm, spray, 6 days) of over 80%. The “Fatality rate on Frankliniella occidentalis (%)” value ([1]; 1 ppm) was 85%, the “Fatality rate on Frankliniella occidentalis (%)” value ([1]; 10 ppm) was 100% and the “Fatality rate on Frankliniella occidentalis (%)” value ([1]; 25 ppm) was 100%. For the same molecule, the pest or weed control at 1 ppm ([1]; dose 1 ppm, spray, 6 days) was over 80%, the pest or weed control at 10 ppm ([1]; dose 10 ppm, spray, 6 days) was over 80% and the pest or weed control at 25 ppm ([1]; dose 25 ppm, spray, 6 days) was over 80%. The “Fatality rate on Plutella xylostella (%)” value (Plutella xylostella; 0.1 ppm) was 90%, the “Fatality rate on Plutella xylostella (%)” value (Plutella xylostella; 1 ppm) was 100% and the “Fatality rate on Plutella xylostella (%)” value (Plutella xylostella; 10 ppm) was 100%. For the same molecule, the pest or weed control at 0.1 ppm (Plutella xylostella; dose 0.1 ppm, spray, 6 days) was over 80%, the pest or weed control at 1 ppm (Plutella xylostella; dose 1 ppm, spray, 6 days) was over 80% and the pest or weed control at 10 ppm (Plutella xylostella; dose 10 ppm, spray, 6 days) was over 80%. For the same molecule, the pest or weed control at 0.1 ppm (Cnaphalocrocis medinalis; dose 0.1 ppm, spray, 6 days) was over 80%, the pest or weed control at 1 ppm (Cnaphalocrocis medinalis; dose 1 ppm, spray, 6 days) was over 80% and the pest or weed control at 10 ppm (Cnaphalocrocis medinalis; dose 10 ppm, spray, 6 days) was over 80%.

`Cc1cc(C2=NOC(c3cc(Cl)c(F)c(Cl)c3)(C(F)(F)F)C2)ccc1C(=O)NCc1ncc(Cl)cc1Cl` (stereo not drawn) [Compound 11] showed a pest or weed control at 0.1 ppm (Mythimna separata) of over 80%, a pest or weed control at 1 ppm (Mythimna separata) of over 80% and a pest or weed control at 10 ppm (Mythimna separata) of over 80%. The pest or weed control at 1 ppm (Tetranychus cinnabarinus; 24 h) was over 80%, the pest or weed control at 10 ppm (Tetranychus cinnabarinus; 24 h) was over 80% and the pest or weed control at 25 ppm (Tetranychus cinnabarinus; 24 h) was over 80%. The pest or weed control at 0.1 ppm (Chilo suppressalis) was over 80%, the pest or weed control at 1 ppm (Chilo suppressalis) was over 80% and the pest or weed control at 10 ppm (Chilo suppressalis) was over 80%. For the same molecule, the pest or weed control at 0.1 ppm (Pieris rapae) was over 80%, the pest or weed control at 1 ppm (Pieris rapae) was over 80% and the pest or weed control at 10 ppm (Pieris rapae) was over 80%. It also gave a pest or weed control at 0.1 ppm (Spodoptera litura) of over 80%, a pest or weed control at 1 ppm (Spodoptera litura) of over 80% and a pest or weed control at 10 ppm (Spodoptera litura) of over 80%. The pest or weed control at 1 ppm [1] was over 80%, the pest or weed control at 10 ppm [1] was over 80% and the pest or weed control at 25 ppm [1] was over 80%. The pest or weed control at 0.1 ppm (Plutella xylostella) was over 80%, the pest or weed control at 1 ppm (Plutella xylostella) was over 80% and the pest or weed control at 10 ppm (Plutella xylostella) was over 80%. For the same molecule, the pest or weed control at 0.1 ppm (Cnaphalocrocis medinalis) was over 80%, the pest or weed control at 1 ppm (Cnaphalocrocis medinalis) was over 80% and the pest or weed control at 10 ppm (Cnaphalocrocis medinalis) was over 80%.
